Columns and labels:
[1] = (§1) Apparent permeability of the compound across bacterial inner membrane mimic PC-phospholipids in PBS buffer at pH 7.4 incubated for 5 hrs by PAMPA based UV-Vis spectrophotometric analysis; type: ADME
[2] = as §1, with “hrs in presence of 1,3,3-tris(8-carbamimidamidooctyl)-1-{8-[N'-(cyclopropylmethyl)carbamimidamido]octyl}urea trifluoroacetate salt” for “hrs”
[3] = Apparent permeability of the compound across bacterial inner membrane mimic pure POPG in PBS buffer at pH 7.4 incubated for 5 hrs by PAMPA based UV-Vis spectrophotometric analysis; type: ADME
[4] = Apparent permeability of the compound across bacterial inner membrane mimic PC-phospholipids in PBS buffer at pH 7.4 incubated for 5 hrs in presence of 1,3-bis(8-aminooctyl)-1,3-bis(8- carbamimidamidooctyl)urea trifluoroacetate salt by PAMPA based UV-Vis spectrophotometric analysis
[5] = as §1, with “hrs in presence of 1,1-bis({6-[N'-(cyclopropylmethyl)carbamimidamido]hexyl})-3-{8-[N'-(cyclopropylmethyl)carbamimidamido]octyl}-3-octylurea” for “hrs”
[6] = Apparent permeability of the compound across bacterial inner membrane mimic POPE/POPG (6:4) in PBS buffer at pH 7.4 incubated for 5 hrs by PAMPA based UV-Vis spectrophotometric analysis; type: ADME
[7] = Apparent permeability of the compound across bacterial inner membrane mimic PC-phospholipids in PBS buffer at pH 7.4 incubated for 5 hrs in presence of {8-[N'(cyclopropylmethyl)carbamimidamido]octyl}urea trifluoroacetate salt by PAMPA based UV-Vis spectrophotometric analysis
[8] = Apparent permeability of the compound across bacterial inner membrane mimic PC-phospholipids in PBS buffer at pH 7.4 incubated for 5 hrs in presence of 1,3-bis(8-carbamimidamidooctyl)-1,3-bis({8-[N'-(cyclopropylmethyl)carbamimidamido]octyl})urea by PAMPA based UV-Vis spectrophotometric analysis
[9] = Apparent permeability of the compound across bacterial inner membrane mimic pure POPG in PBS buffer at pH 7.4 incubated for 5 hrs in presence of 1,3-bis(8-carbamimidamidooctyl)-1,3-bis({8-[N'-(cyclopropylmethyl)carbamimidamido]octyl})urea by PAMPA based UV-Vis spectrophotometric analysis
[10] = (§2) Apparent permeability of the compound across bacterial inner membrane mimic pure POPG in PBS buffer at pH 7.4 incubated for 5 hrs in presence of {8-[N'(cyclopropylmethyl)carbamimidamido]octyl}urea trifluoroacetate salt by PAMPA based UV-Vis spectrophotometric analysis
[11] = Apparent permeability of the compound across bacterial inner membrane mimic pure POPG in PBS buffer at pH 7.4 incubated for 5 hrs in presence of 1,1-bis({6-[N'-(cyclopropylmethyl)carbamimidamido]hexyl})-3-{8-[N'-(cyclopropylmethyl)carbamimidamido]octyl}-3-octylurea by PAMPA based UV-Vis spectrophotometric analysis
[12] = Apparent permeability of the compound across bacterial inner membrane mimic pure POPG in PBS buffer at pH 7.4 incubated for 5 hrs in presence of 1,3-bis(8-aminooctyl)-1,3-bis(8- carbamimidamidooctyl)urea trifluoroacetate salt by PAMPA based UV-Vis spectrophotometric analysis
[13] = as §2, with “1,3,3-tris(8-carbamimidamidooctyl)-1-{8-[N'-(cyclopropylmethyl)carbamimidamido]octyl}urea” for “{8-[N'(cyclopropylmethyl)carbamimidamido]octyl}urea”
[14] = Apparent permeability of the compound across bacterial inner membrane mimic POPE/POPG (6:4) in PBS buffer at pH 7.4 incubated for 5 hrs in presence of 1,3-bis(8-carbamimidamidooctyl)-1,3-bis({8-[N'-(cyclopropylmethyl)carbamimidamido]octyl})urea by PAMPA based UV-Vis spectrophotometric analysis
[15] = (§3) Apparent permeability of the compound across bacterial inner membrane mimic POPE/POPG (6:4) in PBS buffer at pH 7.4 incubated for 5 hrs in presence of {8-[N'(cyclopropylmethyl)carbamimidamido]octyl}urea trifluoroacetate salt by PAMPA based UV-Vis spectrophotometric analysis
[16] = Apparent permeability of the compound across bacterial inner membrane mimic POPE/POPG (6:4) in PBS buffer at pH 7.4 incubated for 5 hrs in presence of 1,1-bis({6-[N'-(cyclopropylmethyl)carbamimidamido]hexyl})-3-{8-[N'-(cyclopropylmethyl)carbamimidamido]octyl}-3-octylurea by PAMPA based UV-Vis spectrophotometric analysis
[17] = Apparent permeability of the compound across bacterial inner membrane mimic POPE/POPG (6:4) in PBS buffer at pH 7.4 incubated for 5 hrs in presence of 1,3-bis(8-aminooctyl)-1,3-bis(8- carbamimidamidooctyl)urea trifluoroacetate salt by PAMPA based UV-Vis spectrophotometric analysis
[18] = as §3, with “1,3,3-tris(8-carbamimidamidooctyl)-1-{8-[N'-(cyclopropylmethyl)carbamimidamido]octyl}urea” for “{8-[N'(cyclopropylmethyl)carbamimidamido]octyl}urea”

O=C(N[C@H](CO)[C@H](O)c1ccc([N+](=O)[O-])cc1)C(Cl)Cl [CHLORAMPHENICOL] gave a Papp at 5 h [1] of 0.54 ×10⁻⁶ cm/s, a Papp at 5 h [2] of 4.67 ×10⁻⁶ cm/s and a Papp at 5 h [3] of 0.06 ×10⁻⁶ cm/s. For the same compound, the Papp at 5 h [4] was 3.24 ×10⁻⁶ cm/s, the Papp at 5 h [5] was 8.73 ×10⁻⁶ cm/s and the Papp at 5 h [6] was 1.12 ×10⁻⁶ cm/s. The Papp at 5 h [7] was 0.04 ×10⁻⁶ cm/s, the Papp at 5 h [8] was 6.12 ×10⁻⁶ cm/s and the Papp at 5 h [9] was 2.18 ×10⁻⁶ cm/s. The Papp at 5 h [10] was 0.08 ×10⁻⁶ cm/s, the Papp at 5 h [11] was 3.39 ×10⁻⁶ cm/s and the Papp at 5 h [12] was 3.14 ×10⁻⁶ cm/s. The Papp at 5 h [13] was 3.78 ×10⁻⁶ cm/s, the Papp at 5 h [14] was 1.39 ×10⁻⁶ cm/s and the Papp at 5 h [15] was 1.67 ×10⁻⁶ cm/s. For the same compound, the Papp at 5 h [16] was 6.64 ×10⁻⁶ cm/s, the Papp at 5 h [17] was 6.11 ×10⁻⁶ cm/s and the Papp at 5 h [18] was 6.98 ×10⁻⁶ cm/s.

— ChEMBL document CHEMBL5154741, “Antibacterial alkylguanidino ureas: Molecular simplification approach, searching for membrane-based MoA” (Eur J Med Chem, 2022)
